Patent US20080014248A1, “Photosensitizer containing indole-3-alkylcarboxylic acid, and kit for photodynamic therapy containing the same” (priority 2006, published 2008)

Legend:
[1] = test system: G361 human melanoma cell line, mouse melanoma cell line B16, liver cancer cell (SK-HEP-1); assay: Toxicity experiment (MTT assay), IAA with UVB irradiation, cancer cells; assay type: cell-based; conditions: 1 to 1000 mM, 20 hours, FIG. 3
Experimental: (§1) (Cell Culture) After cultivating G361 human melanoma cell line (ATCC, Rockville, Md.) in a 5% CO2, 37 °C, 10% fetal bovine serum (FBS), 50 μg/mL streptomyocin, and 50 μg/mL penicillin containing DMEM culture, mouse melanoma cell line B16 (Korea Cell Bank, Seoul, Korea) liver cancer cell (SK-HEP-1, Korea Cell Bank, Seoul, Korea) was cultivated in the DMEM culture under the same conditions. Fibroblasts have been used for the separation of the foreskin during phimosiectomy. Following the skin biopsy method of Rheinward and Green (Rheinwald J G, Green H. Serial cultivation of strains of human epidermal keratinocytes; the formation of keratinizing colonies from single cells. Cell 1975;6: 331-43.), the […] were cultivated in a 10% fetal bovine serum (FBS), 50 μg/mL of streptomyocin, and 50 μg/mL of penicillin containing DMEM culture.
(§2) The cells cultivated in the medium were divided into 24 wells (4×10^4/well), and was then cultivated in a medium without FBS for 24 hours. Cytotoxic effect was measured using MTT (3,4-dimethylthiazol-2-yl)2,5-diphenyltetrazolium bromide) assay. An ICA group treated with UVB (100 mJ/cm^2) and a group with ICA alone were separated, each with a final IAA concentration between 1 and 1000 mM in the culture. […] After adding and dissolving 1 ml of dimethylsufoxide solution in the well, the absorption was measured using ELISA reader at 540 nm. […]

[2] = Photo-activation of IAA by different wavelength of light, free radical formation by DCF (dichlorofluorescein) assay; assay type: physicochemical; conditions: 1 mM IAA, HL-2000-HP irradiator, FIG. 4
Experimental: In order to study the effects of different wavelength of light, IAA was irradiated with HL-2000-HP (Ocean Optics, Dunedin, Fla., USA). Free radical formation was measured by DCF (dichlorofluorescein) assay. In order to induce activity of DCFH-DA, DCFH-DA was dissolved to a 1 mM concentration in 100% ethanol. 350 ul of the solution was then added to 1.75 ml of 0.01 N NaOH and allowed reaction for 5, 10, and 20 minutes. The activated DCFH-DA solution was then prepared by mixing 17.9 ml of 25 mM natrium-phosophoric acid buffer solution (pH 7.2). 1 mM of IAA was then administered to the activated DCFH-DA, and using HL-2000HP light irradiator, various wavelength filters (380, 400, 480, 520, 590, 640 nm) (Thorlabs, Inc., Long Beach, Calif., USA) were used to observe any photoactivation of IAA using each wavelength. Absorption was measured using ELISA reader at 490 nm.

[3] = test system: Human lung cancer cells (NCI-H1264 cell) tumor; assay: Treatment of cancer by combination of IAA and IPL in nude mouse (Hematoxylin & Eosin stain, TUNEL assay); assay type: in vivo; conditions: IAA 50 mg/kg intravenous, 4 and 7 days after cancer cell injection, IPL 20 J/cm2 thirty minutes later, biopsy at twelve days, FIG. 6
From the text: Intense pulse light (IPL) flash lamp by Eclipse was used for visible light irradiation. 20 Irradiation of 20 J/cm^2 intensity was used with a IPL apparatus able to irradiate between 515 nm to 1200 nm. After applying transmission gel (PROGEL DA-YO Medical, Seoul, Korea) to areas of tumor formation each region was irradiated twice using IPL. Human lung cancer cells (NCI-[…] cell, 1×10^6) were subcutaneously injected into nude mouse (Charles River Lab. Wilmington, Mass./male, 6 weeks old, weight 22-25 g). […] 4 and 7 days after cancer cell injection, these mice were injected with IAA (50 mg/kg). Thirty minutes after intravenous injection of IAA, mice were irradiated with IPL (20 J/cm2). Twelve days after cancer cell injection, biopsy was done and tunnel stain was also performed. […] Experimental IAA (10 mg/ml in 50 mM NaHCO/2% v/v ethanol/water, pH 7) was prepared. A control group of mice with tumor mass formation and an experimental group of mice injected with IAA (pH 7, 50 mg/kg) were separated. The injected group was again separated into two groups, one group treated with IAA after 4 days of cancer cell injection and the other after 7 days. Thirty minutes after intravenous injection of IAA, mice were irradiated with IPL (20 J/cm2). A TUNEL (Chemicon, Temecula, Calif.) assay kit was used for the present experiment. […]

[4] = test system: Stomach cancer cell line (SNU1, SNU16, SNU601, SNU719), lung cancer cell line (NCI-H157, NCI-H1264), liver cancer cell line (SK-HEP-1); assay: Toxicity experiment of various cell types (MTT assay), IAA/HRP, cancer cells; assay type: cell-based; conditions: 20 hours, FIG. 2a-2c
Experimental: (§3) Stomach cancer cell line (SNU1, SNU16, SNU601, SNU719, Korean Cell Bank, Seoul, Korea), and lung cancer cell line (NCI-H157, NCI-H1264, Korea Cell Bank, Seoul, Korea) were cultivated in a 5% CO2, 37 °C, 10% FBS, and 50 μg/mL penicillin containing RPMI 1640 culture (WelGene, Daegu, Korea), and liver cancer cell line (SK-HEP-1, Korean Cell Bank, Seoul, Korea) was cultivated in DMEM culture (WelGene, Daegu, Korea) under the same conditions. Fibroblasts have been used for the separation of the foreskin during phimosiectomy. […]
(§4) The cells cultivated in the medium were divided into 24 wells (4×10^4/well), and were then cultivated in a medium without FBS for 24 hours. Cytotoxic effect was measured using MTT (3,4-dimethylthiazol-2-yl)2,5-diphenyltetrazolium bromide) assay (Kim, D. S., Jeon, S. E., Park, K. C. […]
(§5) An HRP (1.2 mg/ml) treated group and a group untreated with HRP was separated, each with a final IAA concentration between 1 and 1000 mM in the culture. […] After adding and dissolving 1 ml of dimethylsufoxide solution in the well, the absorption was measured using ELISA reader at 540 nm. […]

[5] = test system: G361 human melanoma cell line; assay: G361 cell toxicity experiment (MTT assay), IAA with or without HRP; assay type: cell-based; conditions: 20 hours, G361 cells, FIG. 1
Experimental: G361 human melanoma cell line (ATCC, Rockville, Md.) was cultivated in a 5% CO2, 37 °C, 10% fetal bovine serum (FBS), and 50 μg/mL penicillin containing RPMI 1640 culture (WelGene, Daegu, Korea).
The cells cultivated in the medium were divided into 24 wells (4×10^4/well), and was then cultivated in a medium without FBS for 24 hours. Cytotoxic effect was measured using MTT (3,4-dimethylthiazol-2-yl)2,5-diphenyltetrazolium bromide) assay (Kim, D. S., Jeon, S. E., Park, K. C. Cell Signal, 16, 81-8, 2004).
An HRP (1.2 mg/ml, Sigma, St. Louis, Mo.) treated group (indicated by the ‘∘’ in FIG. 1) and a group untreated with HRP (indicated by the ‘▪’ in FIG. 1) were separated, each with a final IAA density between 1 and 500 mM in the culture. After cultivating for 20 hours, 0.5 mg/Ml of MTT was added to the culture and cultivated for 4 more hours. After adding and dissolving 1 ml of dimethylsufoxide solution in the well, the absorption was measured using ELISA reader (TECAN, Salzburg, Austria) at 540 nm. The viability rate for the control group was set at 100%.
(Calculations) Cell viability(%)=(experimental group/control group absorption)×100

[6] = test system: NCI-H1264 cell; assay: Prevention of cancer by combining IAA and IPL (treatment before appearance of tumor mass, biopsy); assay type: in vivo, nude mouse; conditions: IAA and IPL treatment one, three and five days after NCI-H1264 cell injection, biopsy ten days after injection, FIG. 7
Experimental: It was observed that the combination of IAA and IPL could induce cancer cell necrosis. However, prevention of histologic or distant metastasis is more important in the treatment of cancer. In order to study the prevention effect, IAA and IPL treatment was performed after cancer cell injection but before the appearance of tumor mass. One, three, and five days after NCI-[…] cell injection, IAA and IPL treatment was performed. Ten days after cancer cell injection, biopsy was done. […] Thus, it can be said that IAA and IPL treatment was effective in the prevention of distant metastasis.

[7] = test system: normal human fibroblasts; assay: Toxicity experiment of various cell types (MTT assay), IAA/HRP, fibroblasts; assay type: cell-based; conditions: 20 hours, FIG. 2a-2c
Experimental: as §3, §4, §5

[8] = test system: normal human fibroblasts; assay: Toxicity experiment (MTT assay), IAA with UVB irradiation, fibroblasts; assay type: cell-based; conditions: 1 to 1000 mM, 20 hours, FIG. 3
Experimental: as §1, §2

With `O=C(O)Cc1c[nH]c2ccccc12` [IAA, Indole-3-acetic acid] the “toxicity (cell viability, MTT)” value ([1]; IAA alone) was “not toxic to either normal cells or cancer cells”, the “toxicity (cell viability, MTT)” value ([1]; IAA treated with UVB (100 mJ/cm^2)) was “toxic to most of the cancer cells” and the “activation of IAA by light (free radical formation, DCF assay)” value ([2]; 480 nm (blue) filter) was “particularly effective”. For the same compound, the “activation of IAA by light (free radical formation, DCF assay)” value ([2]; 520 (green) filter) was “particularly effective”, the “tumor necrosis (Hematoxylin & Eosin stain and TUNEL assay)” value [3] was “can induce tumor necrosis” and the “toxicity (cell viability, MTT)” value ([4]; IAA administered with HRP (1.2 mg/ml)) was “toxic to most of the cancer cells”. For the same compound, the “toxicity (cell viability, MTT)” value ([4]; IAA alone, 1 to 1000 mM) was “not toxic to either normal cells or cancer cells”, the “cytotoxic effects (cell viability, MTT)” value ([5]; IAA alone (no HRP), IAA 1 to 500 mM) was “no signs of cytotoxic effects” and the “cytotoxic effects (cell viability, MTT)” value ([5]; IAA and HRP (1.2 mg/ml), IAA density of at least 100 mM) was “definite cytotoxic effects”. The “tumor cell growth (biopsy)” value [6] was “not observed in treated tissues”, the “toxicity (cell viability, MTT)” value ([7]; IAA administered with HRP (1.2 mg/ml), normal human fibroblasts) was “not toxic to normal human fibroblasts” and the “toxicity (cell viability, MTT)” value ([7]; IAA alone, 1 to 1000 mM, normal cells (fibroblasts)) was “not toxic to either normal cells or cancer cells”. For the same compound, the “toxicity (cell viability, MTT)” value ([8]; IAA alone, normal cells (fibroblasts)) was “not toxic to either normal cells or cancer cells” and the “toxicity (cell viability, MTT)” value ([8]; IAA treated with UVB (100 mJ/cm^2), normal human fibroblasts) was “not toxic to normal human fibroblasts”.
